Reference: ChEMBL document CHEMBL1201862, “PubChem BioAssay data set” (2004)
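Test compounds were applied to cells in 96-well plates for 48 hours at 5 doses. At the GI50, growth is halved.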 Calls of active or inactive are those of the source. Cut-off read from the data, not from the text of the source: active = GI50 up to about 1.1 µM and inactive = higher.

Columns and labels:
Assay in all cases: DTP human tumour cell line panel, 48 h
[1] = tested on: TK-10
[2] = tested on: MCF7
[3] = tested on: OVCAR-8
[4] = tested on: Hs-578T
[5] = tested on: KM-20L2
[6] = tested on: LOX IMVI
[7] = tested on: SF-268
[8] = tested on: IGROV-1
[9] = tested on: UACC-62
[10] = tested on: K562
[11] = tested on: NCI-H522
[12] = tested on: HCT-15
[13] = tested on: SK-OV-3
[14] = tested on: NCI/ADR-RES
[15] = tested on: SF-539
[16] = tested on: ACHN
[17] = tested on: CCRF-CEM
[18] = tested on: SK-MEL-28
[19] = tested on: OVCAR-3
[20] = tested on: HL-60

## COC1=CC(=O)c2c(ccc3ncnc(N)c23)C1=O
[1]
  GI50: 3.13 µM (inactive)
[2]
  GI50: 1.54 µM (inactive)
[3]
  GI50: 2.11 µM (inactive)
[4]
  GI50: 3.3 µM (inactive)
[5]
  GI50: 18.8 µM (inactive)
[6]
  GI50: 1.03 µM (active)
[7]
  GI50: 2.47 µM (inactive)
[8]
  GI50: 1.73 µM (inactive)
[9]
  GI50: 1.81 µM (inactive)
[10]
  GI50: 0.659 µM (active)
[11]
  GI50: 2.42 µM (inactive)
[12]
  GI50: 1.99 µM
[13]
  GI50: 6.28 µM (inactive)
[14]
  GI50: 2.31 µM (inactive)
[15]
  GI50: 1.61 µM (inactive)
[16]
  GI50: 1.57 µM (inactive)
[17]
  GI50: 0.665 µM (active)
[18]
  GI50: 2.36 µM (inactive)
[19]
  GI50: 1.48 µM (inactive)
[20]
  GI50: 0.57 µM (active)

## COC(=O)CCC(=O)C(CC(=O)OC)C(=O)CCC(=O)NCCc1ccccc1 (stereo unspecified)
[1]
  GI50: > 100 µM (inactive)
[3]
  GI50: > 100 µM (inactive)
[5]
  GI50: > 100 µM (inactive)
[6]
  GI50: > 100 µM (inactive)
[7]
  GI50: > 100 µM (inactive)
[8]
  GI50: > 100 µM (inactive)
[9]
  GI50: > 100 µM (inactive)
[10]
  GI50: > 100 µM (inactive)
[11]
  GI50: > 100 µM (inactive)
[12]
  GI50: > 100 µM
[13]
  GI50: > 100 µM (inactive)
[15]
  GI50: > 100 µM (inactive)
[16]
  GI50: > 100 µM (inactive)
[17]
  GI50: > 100 µM (inactive)
[18]
  GI50: > 100 µM (inactive)
[19]
  GI50: > 100 µM (inactive)
[20]
  GI50: > 100 µM (inactive)

## N=c1n(CC(=O)NC23CC4CC(CC(C4)C2)C3)c2ccccc2n1CC(=O)NC12CC3CC(CC(C3)C1)C2
[1]
  GI50: 1.66 µM (inactive)
[3]
  GI50: 1.68 µM (inactive)
[5]
  GI50: 1.81 µM (inactive)
[6]
  GI50: 1.63 µM (inactive)
[7]
  GI50: 1.95 µM (inactive)
[8]
  GI50: 1.56 µM (inactive)
[9]
  GI50: 1.96 µM (inactive)
[10]
  GI50: 2.82 µM (inactive)
[11]
  GI50: 1.9 µM (inactive)
[12]
  GI50: 1.9 µM
[13]
  GI50: 15.7 µM (inactive)
[15]
  GI50: 1.92 µM (inactive)
[16]
  GI50: 2 µM (inactive)
[17]
  GI50: 2.8 µM (inactive)
[18]
  GI50: 1.79 µM (inactive)
[19]
  GI50: 1.88 µM (inactive)
[20]
  GI50: 2.67 µM (inactive)

## N=C(CC(=O)Nc1ccc(Cl)cc1)Nc1ccccc1
[1]
  GI50: > 100 µM (inactive)
[3]
  GI50: > 100 µM (inactive)
[5]
  GI50: > 100 µM (inactive)
[6]
  GI50: > 100 µM (inactive)
[7]
  GI50: > 100 µM (inactive)
[8]
  GI50: > 100 µM (inactive)
[9]
  GI50: > 100 µM (inactive)
[10]
  GI50: > 100 µM (inactive)
[11]
  GI50: > 100 µM (inactive)
[13]
  GI50: > 100 µM (inactive)
[15]
  GI50: > 100 µM (inactive)
[16]
  GI50: > 100 µM (inactive)
[17]
  GI50: > 10 µM (inactive)
[18]
  GI50: > 100 µM (inactive)
[19]
  GI50: > 100 µM (inactive)
[20]
  GI50: > 100 µM (inactive)

## O=C1/C(=C/c2ccc3c(c2)OCCO3)CCC/C1=C\c1ccc2c(c1)OCCO2
[1]
  GI50: 36.9 µM (inactive)
[3]
  GI50: 15.9 µM (inactive)
[5]
  GI50: 10.8 µM (inactive)
[6]
  GI50: 8.41 µM (inactive)
[7]
  GI50: 26.2 µM (inactive)
[8]
  GI50: 32.8 µM (inactive)
[9]
  GI50: 23 µM (inactive)
[11]
  GI50: 35.4 µM (inactive)
[12]
  GI50: 24.5 µM
[13]
  GI50: 83.8 µM (inactive)
[15]
  GI50: 19.2 µM (inactive)
[16]
  GI50: 39.9 µM (inactive)
[17]
  GI50: 29.9 µM (inactive)
[18]
  GI50: 24.3 µM (inactive)
[19]
  GI50: 20.3 µM (inactive)
[20]
  GI50: 12.3 µM (inactive)

## O=C(O)c1ccc2c(c1)C(=O)N(c1ccc(S(=O)(=O)c3ccc(N4C(=O)c5ccc(C(=O)O)cc5C4=O)cc3)cc1)C2=O
[1]
  GI50: > 100 µM (inactive)
[3]
  GI50: > 100 µM (inactive)
[5]
  GI50: > 100 µM (inactive)
[6]
  GI50: > 100 µM (inactive)
[7]
  GI50: > 100 µM (inactive)
[9]
  GI50: > 100 µM (inactive)
[10]
  GI50: > 100 µM (inactive)
[11]
  GI50: > 100 µM (inactive)
[12]
  GI50: > 100 µM
[13]
  GI50: > 100 µM (inactive)
[15]
  GI50: > 100 µM (inactive)
[16]
  GI50: > 100 µM (inactive)
[17]
  GI50: > 100 µM (inactive)
[18]
  GI50: > 100 µM (inactive)
[19]
  GI50: > 100 µM (inactive)
[20]
  GI50: > 100 µM (inactive)

## CCOc1ccccc1NC(=O)CSc1nnc(Cc2ccccc2)o1
[1]
  GI50: 71.1 µM (inactive)
[3]
  GI50: 27 µM (inactive)
[5]
  GI50: 38.1 µM (inactive)
[6]
  GI50: 15.5 µM (inactive)
[7]
  GI50: 23.9 µM (inactive)
[8]
  GI50: 47.5 µM (inactive)
[9]
  GI50: 25.8 µM (inactive)
[10]
  GI50: 54.8 µM (inactive)
[11]
  GI50: 18.2 µM (inactive)
[12]
  GI50: 17.3 µM
[13]
  GI50: 44.9 µM (inactive)
[15]
  GI50: 25.5 µM (inactive)
[16]
  GI50: 22.5 µM (inactive)
[17]
  GI50: 33.5 µM (inactive)
[18]
  GI50: 71.4 µM (inactive)
[19]
  GI50: 17.1 µM (inactive)
[20]
  GI50: 35.7 µM (inactive)

## OC12c3ccccc3C1(N1CCOCC1)CCCCC21OCCCO1 (stereo unspecified)
[1]
  GI50: > 100 µM (inactive)
[3]
  GI50: > 100 µM (inactive)
[5]
  GI50: > 100 µM (inactive)
[6]
  GI50: > 100 µM (inactive)
[7]
  GI50: > 100 µM (inactive)
[8]
  GI50: > 100 µM (inactive)
[9]
  GI50: > 100 µM (inactive)
[10]
  GI50: > 100 µM (inactive)
[11]
  GI50: > 100 µM (inactive)
[12]
  GI50: > 100 µM
[13]
  GI50: > 100 µM (inactive)
[15]
  GI50: > 100 µM (inactive)
[16]
  GI50: > 100 µM (inactive)
[17]
  GI50: > 100 µM (inactive)
[18]
  GI50: > 100 µM (inactive)
[19]
  GI50: > 100 µM (inactive)
[20]
  GI50: > 100 µM (inactive)
